Source: ChEMBL document CHEMBL1671764, “In vitro and in vivo activities of LCB01-0371, a new oxazolidinone” (2010)
Values after ≈ are worked out from the molar mass of the structure shown. Active and inactive are the calls of the source. The calls are words filed in the database; no cut-off is given here.

How the values were obtained:
Staphylococcus aureus [1] = assay: Antibacterial activity against methicillin-susceptible Staphylococcus aureus Giorgio assessed as bacterial regrowth at 4 times MIC after 24 hrs by […] method; type: functional, organism-based
Staphylococcus aureus [2] = assay: Antibacterial activity against methicillin-resistant Staphylococcus aureus p125 assessed as bacteriostatic at 8 times MIC after 24 hrs by […] method; type: functional, organism-based
Enterococcus = assay: Antibacterial activity against 10^4 to 10^5 CFU vancomycin-resistant Enterococcus after 18 hrs by CLSI 2-fold agar dilution method; type: functional
Staphylococcus aureus [3] = assay: Antibacterial activity against methicillin-susceptible Staphylococcus aureus Giorgio assessed as bacteriostatic at MIC after 24 hrs by […] method; type: functional, organism-based
Haemophilus influenzae [4] = assay: Antibacterial activity against 7.5 x 10^8 CFU Haemophilus influenzae hd2 after 18 hrs by CLSI 2-fold agar dilution method; type: functional; details: hd2, 18 h
Staphylococcus aureus [5] = assay: Antibacterial activity against methicillin-susceptible Staphylococcus aureus Giorgio assessed as bacteriostatic at 2 times MIC after 24 hrs by […] method; type: functional, organism-based
Staphylococcus [6] = assay: Antibacterial activity against 10^4 to 10^5 CFU methicillin-susceptible coagulase-negative Staphylococcus after 18 hrs by CLSI 2-fold agar dilution method; type: functional
Streptococcus pneumoniae [7] = assay: Antibacterial activity against 1 x 10^4 CFU Streptococcus pneumoniae ATCC 6305 after 18 hrs by CLSI 2-fold agar dilution method; type: functional; details: ATCC 6305, 18 h
Enterococcus faecium = assay: Antibacterial activity against 10^4 to 10^5 CFU Enterococcus faecium after 18 hrs by CLSI 2-fold agar dilution method; type: functional
Staphylococcus [8] = assay: Antibacterial activity against 10^4 to 10^5 CFU methicillin-resistant coagulase-negative Staphylococcus after 18 hrs by CLSI 2-fold agar dilution method; type: functional
Staphylococcus aureus [9] = assay: Antibacterial activity against methicillin-resistant Staphylococcus aureus p125 assessed as bacteriostatic at 4 times MIC after 24 hrs by […] method; type: functional, organism-based
Staphylococcus aureus [10] = assay: Antibacterial activity against methicillin-resistant Staphylococcus aureus p125 assessed as bacteriostatic at 2 times MIC after 24 hrs by […] method; type: functional, organism-based
Streptococcus pneumoniae [11] = assay: Antibacterial activity against 10^4 to 10^5 CFU Streptococcus pneumoniae after 18 hrs by CLSI 2-fold agar dilution method; type: functional
Staphylococcus aureus [12] = assay: Antibacterial activity against methicillin-resistant Staphylococcus aureus p125 assessed as bacteriostatic at MIC after 24 hrs by […] method; type: functional, organism-based
Staphylococcus aureus [13] = assay: Antibacterial activity against methicillin-susceptible Staphylococcus aureus Giorgio assessed as bacterial regrowth at 8 times MIC after 24 hrs by […] method; type: functional, organism-based
Enterococcus faecalis [14] = assay: Antibacterial activity against 2 x 10^8 CFU Enterococcus faecalis u810 after 18 hrs by CLSI 2-fold agar dilution method; type: functional; details: u810, 18 h
Moraxella catarrhalis = assay: Antibacterial activity against 10^4 to 10^5 CFU Moraxella catarrhalis after 18 hrs by CLSI 2-fold agar dilution method; type: functional
Staphylococcus aureus [15] = assay: Antibacterial activity against 10^4 to 10^5 CFU methicillin-resistant Staphylococcus aureus after 18 hrs by CLSI 2-fold agar dilution method; type: functional
Staphylococcus aureus [16] = assay: Antibacterial activity against methicillin-resistant Staphylococcus aureus p125 assessed as bacterial regrowth at 8 times MIC after 24 hrs by […] method; type: functional, organism-based
Staphylococcus aureus [17] = assay: Antibacterial activity against 10^4 to 10^5 CFU methicillin-susceptible Staphylococcus aureus after 18 hrs by CLSI 2-fold agar dilution method; type: functional
Staphylococcus aureus [18] = assay: Antibacterial activity against 1 x 10^7 CFU methicillin-susceptible Staphylococcus aureus Giorgio after 18 hrs by CLSI 2-fold agar dilution method; type: functional
Staphylococcus aureus [19] = assay: Antibacterial activity against 1 x 10^8 CFU methicillin-resistant Staphylococcus aureus p125 after 18 hrs by CLSI 2-fold agar dilution method; type: functional; details: p125, 18 h
Haemophilus influenzae [20] = assay: Antibacterial activity against 10^4 to 10^5 CFU Haemophilus influenzae after 18 hrs by CLSI 2-fold agar dilution method; type: functional
Staphylococcus aureus [21] = assay: Antibacterial activity against methicillin-susceptible Staphylococcus aureus Giorgio assessed as bacteriostatic at 8 times MIC after 24 hrs by […] method; type: functional, organism-based
Streptococcus pyogenes = assay: Antibacterial activity against 10^4 to 10^5 CFU Streptococcus pyogenes after 18 hrs by CLSI 2-fold agar dilution method; type: functional
Staphylococcus aureus [22] = assay: Antibacterial activity against methicillin-susceptible Staphylococcus aureus Giorgio assessed as bacteriostatic at 4 times MIC after 24 hrs by […] method; type: functional, organism-based
Enterococcus faecalis [23] = assay: Antibacterial activity against 10^4 to 10^5 CFU Enterococcus faecalis after 18 hrs by CLSI 2-fold agar dilution method; type: functional
Staphylococcus aureus [24] = assay: Antibacterial activity against methicillin-resistant Staphylococcus aureus p125 assessed as bacterial regrowth at 4 times MIC after 24 hrs by […] method; type: functional, organism-based

Q: Which results are given for CN1CCN(c2ccc(N3C[C@H](CO)OC3=O)cc2F)C=N1 [DELPAZOLID]?
A: Activity (Staphylococcus aureus [1]): Active; Activity (Staphylococcus aureus [2]): Active; MIC (Enterococcus): 1 µg/mL (≈ 3.24 µM); MIC50 (Enterococcus): 1 µg/mL (≈ 3.24 µM); MIC90 (Enterococcus): 1 µg/mL (≈ 3.24 µM); Activity (Staphylococcus aureus [3]): Active; MIC (Haemophilus influenzae [4]): 8 µg/mL (≈ 25.9 µM); Activity (Staphylococcus aureus [5]): Active; MIC (Staphylococcus [6]): 0.5 µg/mL (≈ 1.62 µM); MIC50 (Staphylococcus [6]): 0.5 µg/mL (≈ 1.62 µM); MIC90 (Staphylococcus [6]): 0.5 µg/mL (≈ 1.62 µM); MIC (Streptococcus pneumoniae [7]): 0.5 µg/mL (≈ 1.62 µM); MIC50 (Enterococcus faecium): 2 µg/mL (≈ 6.49 µM); MIC90 (Enterococcus faecium): 2 µg/mL (≈ 6.49 µM); MIC (Staphylococcus [8]): 0.5 µg/mL (≈ 1.62 µM); MIC50 (Staphylococcus [8]): 0.5 µg/mL (≈ 1.62 µM); MIC90 (Staphylococcus [8]): 0.5 µg/mL (≈ 1.62 µM); Activity (Staphylococcus aureus [9]): Active; Activity (Staphylococcus aureus [10]): Active; MIC50 (Streptococcus pneumoniae [11]): 0.5 µg/mL (≈ 1.62 µM); MIC90 (Streptococcus pneumoniae [11]): 1 µg/mL (≈ 3.24 µM); Activity (Staphylococcus aureus [12]): Active; Activity (Staphylococcus aureus [13]): Active; MIC (Enterococcus faecalis [14]): 2 µg/mL (≈ 6.49 µM); MIC50 (Moraxella catarrhalis): 4 µg/mL (≈ 13 µM); MIC90 (Moraxella catarrhalis): 8 µg/mL (≈ 25.9 µM); MIC50 (Staphylococcus aureus [15]): 1 µg/mL (≈ 3.24 µM); MIC90 (Staphylococcus aureus [15]): 2 µg/mL (≈ 6.49 µM); Activity (Staphylococcus aureus [16]): Active; MIC50 (Staphylococcus aureus [17]): 1 µg/mL (≈ 3.24 µM); MIC90 (Staphylococcus aureus [17]): 2 µg/mL (≈ 6.49 µM); MIC (Staphylococcus aureus [18]): 1 µg/mL (≈ 3.24 µM); MIC (Staphylococcus aureus [19]): 1 µg/mL (≈ 3.24 µM); MIC50 (Haemophilus influenzae [20]): 8 µg/mL (≈ 25.9 µM); MIC90 (Haemophilus influenzae [20]): 8 µg/mL (≈ 25.9 µM); Activity (Staphylococcus aureus [21]): Active; MIC50 (Streptococcus pyogenes): 1 µg/mL (≈ 3.24 µM); MIC90 (Streptococcus pyogenes): 2 µg/mL (≈ 6.49 µM); Activity (Staphylococcus aureus [22]): Active; MIC50 (Enterococcus faecalis [23]): 2 µg/mL (≈ 6.49 µM); MIC90 (Enterococcus faecalis [23]): 2 µg/mL (≈ 6.49 µM); Activity (Staphylococcus aureus [24]): Active

Q: Which results are given for CC[C@H]1OC(=O)[C@H](C)[C@@H](O[C@H]2C[C@@](C)(OC)[C@@H](O)[C@H](C)O2)[C@H](C)[C@@H](O[C@@H]2O[C@H](C)C[C@H](N(C)C)[C@H]2O)[C@](C)(O)C[C@@H](C)C(=O)[C@H](C)[C@@H](O)[C@]1(C)O [ERYTHROMYCIN]?
A: MIC50 (Enterococcus): > 64 µg/mL; MIC90 (Enterococcus): > 64 µg/mL; MIC50 (Staphylococcus [6]): 0.25 µg/mL (≈ 0.341 µM); MIC90 (Staphylococcus [6]): > 64 µg/mL; MIC50 (Enterococcus faecium): > 64 µg/mL; MIC90 (Enterococcus faecium): > 64 µg/mL; MIC50 (Staphylococcus [8]): > 64 µg/mL; MIC50 (Streptococcus pneumoniae [11]): 64 µg/mL (≈ 87.2 µM); MIC90 (Streptococcus pneumoniae [11]): > 64 µg/mL; MIC50 (Staphylococcus aureus [15]): > 64 µg/mL; MIC50 (Staphylococcus aureus [17]): 0.25 µg/mL (≈ 0.341 µM); MIC90 (Staphylococcus aureus [17]): > 64 µg/mL; MIC (Haemophilus influenzae [20]): 64 µg/mL (≈ 87.2 µM); MIC50 (Haemophilus influenzae [20]): 64 µg/mL (≈ 87.2 µM); MIC90 (Haemophilus influenzae [20]): > 64 µg/mL; MIC50 (Streptococcus pyogenes): 0.06 µg/mL (≈ 0.0818 µM); MIC90 (Streptococcus pyogenes): 2 µg/mL (≈ 2.73 µM); MIC50 (Enterococcus faecalis [23]): > 64 µg/mL; MIC90 (Enterococcus faecalis [23]): > 64 µg/mL

Q: How did the MIC50 (Enterococcus) turn out when CO/N=C1\CN(c2nc3c(cc2F)c(=O)c(C(=O)O)cn3C2CC2)CC1CN (centres undefined) [GEMIFLOXACIN] was run?
A: 0.5 µg/mL (≈ 1.28 µM)

Q: And the MIC90 (Enterococcus)?
A: 2 µg/mL (≈ 5.14 µM)

Q: And the MIC50 (Staphylococcus [6])?
A: 0.015 µg/mL (≈ 0.0385 µM)

Q: And the MIC90 (Staphylococcus [6])?
A: 0.5 µg/mL (≈ 1.28 µM)

Q: What about the MIC50 (Enterococcus faecium) of the same compound?
A: 2 µg/mL (≈ 5.14 µM)

Q: And the MIC90 (Enterococcus faecium)?
A: 16 µg/mL (≈ 41.1 µM)

Q: And the MIC50 (Staphylococcus [8])?
A: 0.5 µg/mL (≈ 1.28 µM)

Q: What about the MIC90 (Staphylococcus [8]) of the same compound?
A: 1 µg/mL (≈ 2.57 µM)

Q: What about the MIC50 (Streptococcus pneumoniae [11]) of the same compound?
A: 0.03 µg/mL (≈ 0.077 µM)

Q: And the MIC90 (Streptococcus pneumoniae [11])?
A: 0.06 µg/mL (≈ 0.154 µM)

Q: And the MIC50 (Moraxella catarrhalis)?
A: < 0.008 µg/mL

Q: And the MIC90 (Moraxella catarrhalis)?
A: < 0.008 µg/mL

Q: What about the MIC50 (Staphylococcus aureus [15]) of the same compound?
A: 2 µg/mL (≈ 5.14 µM)

Q: And the MIC90 (Staphylococcus aureus [15])?
A: 64 µg/mL (≈ 164 µM)

Q: What about the MIC50 (Staphylococcus aureus [17]) of the same compound?
A: 0.015 µg/mL (≈ 0.0385 µM)

Q: What about the MIC90 (Staphylococcus aureus [17]) of the same compound?
A: 0.06 µg/mL (≈ 0.154 µM)

Q: And the MIC (Haemophilus influenzae [20])?
A: 0.008 µg/mL (≈ 0.0205 µM)

Q: And the MIC50 (Haemophilus influenzae [20])?
A: 0.008 µg/mL (≈ 0.0205 µM)

Q: What about the MIC90 (Haemophilus influenzae [20]) of the same compound?
A: 0.008 µg/mL (≈ 0.0205 µM)

Q: What about the MIC50 (Streptococcus pyogenes) of the same compound?
A: 0.03 µg/mL (≈ 0.077 µM)

Q: And the MIC90 (Streptococcus pyogenes)?
A: 0.06 µg/mL (≈ 0.154 µM)

Q: What about the MIC50 (Enterococcus faecalis [23]) of the same compound?
A: 0.125 µg/mL (≈ 0.321 µM)

Q: And the MIC90 (Enterococcus faecalis [23])?
A: 4 µg/mL (≈ 10.3 µM)
